Source: ChEMBL document CHEMBL1146520, “Sterol and triterpenoid constituents of Verbena littoralis with NGF-potentiating activity” (J Nat Prod, 2003)
Active and inactive are the calls of the source. The calls are words filed in the database; no cut-off is given here.

What was measured:
Format in all cases: functional, cell-based
PC-12 [1] = test: Enhancement of neurite outgrowth in rat PC12D cells up to 30 uM in absence of nerve growth factor
PC-12 [2] = test: Enhancement of nerve growth factor-stimulated neurite outgrowth in rat PC12D cells at 3 to 10 uM
PC-12 [3] = test: Enhancement of nerve growth factor-stimulated neurite outgrowth in rat PC12D cells at 1 to 3 uM

Structure (SMILES)	Activity (PC-12 [1])	Activity (PC-12 [2])	Activity (PC-12 [3])
CC[C@H](C[C@@H](O)[C@@H](C)[C@H]1CC[C@H]2[C@@H]3[C@H](O)C=C4[C@@H](O)[C@@H](O)CC[C@]4(C)[C@H]3CC[C@]12C)C(C)C	inactive		
CC1(C)CC[C@]2(C(=O)O)CC[C@]3(C)C(=CC[C@@H]4[C@@]5(C)CC[C@H](O)C(C)(C)[C@@H]5CC[C@]43C)[C@@H]2C1	inactive	Active	
CC[C@H](C[C@@H](O)[C@@H](C)[C@H]1CC[C@H]2[C@@H]3[C@H](O)C=C4C[C@@H](O)CC[C@]4(C)[C@H]3CC[C@]12C)C(C)C	inactive	Active	
C[C@H]1[C@H](C)CC[C@]2(C(=O)O)CC[C@]3(C)C(=CC[C@@H]4[C@@]5(C)CC[C@H](O)C(C)(C)[C@@H]5CC[C@]43C)[C@H]12	inactive		Active
